Reference: patent EP0903341A1, “"Novel ortho-mercaptoaniline compounds"” (Akzo Nobel N.V., priority 1997, dated 1999)
In brackets after ≈: the same amount, converted by molar mass.

Tests used:
Entamoeba histolytica = experiment: Anti-amoebic action in vivo in rats infected in the caecum (cure index); details: for cure index: five days
[1] = tested on: Entamoeba histolytica 200: NIH or E-32; experiment: Anti-amoebic action in vitro (axenic culture, minimum inhibitory concentration); assay type: cell-based; details: axenic culture in TYI-S-33 medium, 48 h incubation with compound at 37°C, amoebae counted by microscope, read-out: minimum concentration active in killing the amoeba
Protocol: Axenic Entamoeba histolytica cultures were grown in glass, screw-capped tubes (16x100 mm) containing about 10 ml complete growth medium TYI-S-33. The tubes were inoculated with 0.5 ml of a 72 h old axenic culture of Entamoeba histolytica 200: NIH or E-32, obtained from an external supplier (Kothari Research Centre, Calcutta, India). After incubation for 24 h at 37°C compounds to be tested were added at desired concentrations. Incubation of the tubes was continued for an additional 48 h. The number of amoebae in the medium were counted by microscopic examination at 100x magnification. The complete growth medium TYI-S-33 medium was prepared by mixing aseptically 9 ml of a nutrient solution, 1 ml of animal serum, 0.3 ml of a vitamin mixture and 0.05 ml of a solution containing the antibiotics streptomycine and benzylpenicillin. The composition of TYI-S-33 medium and method of preparation is described in detail by Diamond (J Parasitology 54:1047-1056, 1968). Test compounds are tested at different concentrations, the highest is 100 µg/ml. Lower concentrations are tested in successive tests until the minimum inhibitory concentration is reached. The reference compounds tinidazole was active in killing the amoeba at a minimum concentration of 1.5 µg/ml. Compound B of this invention was active in killing the amoeba at a minimum concentration of 3.1 µg/ml.

Row | SMILES | cure index (Entamoeba histolytica; Dose 9 mg/kg oral) | cure index (Entamoeba histolytica; Dose 18.8 mg/kg oral) | cure index (Entamoeba histolytica; Dose 37.5 mg/kg oral) | cure index (Entamoeba histolytica; Dose 75 mg/kg oral) | cure index (Entamoeba histolytica; Dose 100 mg/kg oral) | increase in cure index (in words) (Entamoeba histolytica; doses of 9 or 20 mg/kg per day, oral) | cure index (Entamoeba histolytica; Dose 150 mg/kg oral) | cure index (Entamoeba histolytica; Dose 200 mg/kg oral) | MIC [1] [µg/mL]
1 | COc1ccc(CCNCCC(=O)N(C)c2ccccc2SC)cc1OC [Compound A, 3-[2-(3,4-dimethoxyphenyl)ethylamino]-N-methyl-N-[(2-methylthio)phenyl]-propionamide] | 23 percentage of the control group | 34 percentage of the control group | 56 ±5 percentage of the control group | 76 ±6 percentage of the control group | 74 ± 10 percentage of the control group | No increase in cure index |  |  | 
2 | CCS(=O)(=O)CCn1c([N+](=O)[O-])cnc1C [Tinidazole, reference compound] |  |  |  | 51 ± 8 percentage of the control group |  |  | 66 ± 5 percentage of the control group | 81 ± 5 percentage of the control group | 1.5 (≈ 6.07 µM)
3 | COc1ccc(CSc2ccccc2N(C)CCCN(C)CCc2ccc(OC)c(OC)c2)cc1 [Compound B, N-[2-(3,4-dimethoxyphenyl)ethyl]-N-methyl-N'-[2-(4-methoxyphenyl)methylthiophenyl]-N'-methyl-1,3-diaminopropane] |  |  |  |  |  |  |  |  | 3.1 (≈ 6.27 µM)
